We go through 19 compounds from patent publication US12319676B2, “Substituted amide compounds useful as farnesoid X receptor modulators” (BRISTOL-MYERS SQUIBB COMPANY, priority 2019, dated 2025).

For the experiment, the target named is T1, human FXR (Homo sapiens, UniProt Q96RI1).
T1 construct: expressed in transfected cells; host or cells: HEK293 cells stably carrying a 5xGal4 response element-luciferase reporter, transiently transfected with pcDNA3.1-Gal4-FXR
T1 sequence (Q96RI1 262-486 limits assumed): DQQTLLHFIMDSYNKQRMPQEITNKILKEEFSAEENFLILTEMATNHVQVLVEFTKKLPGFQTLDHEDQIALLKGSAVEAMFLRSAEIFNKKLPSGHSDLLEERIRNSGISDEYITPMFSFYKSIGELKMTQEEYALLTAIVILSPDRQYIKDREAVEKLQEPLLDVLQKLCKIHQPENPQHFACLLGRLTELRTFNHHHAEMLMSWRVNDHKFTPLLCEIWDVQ
Description: transient human FXR/Gal4-luciferase reporter assay. Format: cell-based. Particulars: Gal4-hFXR fusion construct, luciferase reporter in HEK293 cells; overnight incubation; response as percentage of 8 μM GW-4064 control. Here is the method:
The exemplified compounds of the present invention were tested in the transient human FXR/Gal4-luciferase reporter assay, and assay results were reported in Table 1 and Examples 1 to 3 together with other analytical data. A Gal4-hFXR fusion construct reporter system was used as the primary assay to characterize compound activity. A construct including 5 copies of the Gal4 promoter response element upstream of a firefly luciferase reporter cDNA was stably expressed in HEK293 cells. This reporter cell line was maintained in Dulbecco's Modified Eagle's medium (DMEM; Gibco) supplemented with 1% penicillin-streptomycin (P/S) solution, 500 μg/mL Zeocin and 10% charcoal/dextran-treated fetal bovine serum (cs-FBS) at 37° C. in a humidified 5% CO2 atmosphere. Another plasmid was constructed in which the human cytomegalovirus promoter in the pcDNA3.1 vector directs the expression of the cDNA encoding a fusion protein comprised of the DNA binding domain from the Gal4 transcription factor fused to the ligand binding domain from human FXR. The day prior to transfection, the reporter cells in culture are detached from the plate with trypsin and plated into a T75 flask at a sufficient density to achieve approximately 90% confluence the next morning. The transfection reagents are prepared by separately diluting 25 μg of the pcDNA3.1-Gal4-FXR plasmid into 1.87 mL of Opti-MEM (Thermo-Fisher), and 40 μL of Lipofectamine 2000 (Thermo-Fisher) into 1.87 mL of Opti-MEM, and then adding the diluted DNA solution into the diluted Lipofectamine 2000 solution and incubating at room temperature for 15-20 minutes. The mixture is further diluted with 10 mL of a solution comprised of DMEM, 10% cs-FBS, and 1% P/S immediately prior to transferring to the cells. The maintenance culture media is aspirated from the cells and the final transfection mixture is added before the cells are incubated overnight at 37° C. in a humidified 5% CO2 atmosphere. This protocol can be scaled up, and the transiently transfected cells can be cryopreserved in an assay-ready format. For compound testing, 100 nL of the compounds (serial dilutions in DMSO) are dispensed with an Echo acoustic dispenser (Labcyte) into the wells of a Corning/Costar clear bottom 384-well white plate. The transfected cells are harvested, counted, and diluted such that 10-25,000 cells in 25 μL are plated into each well of the 384-well compound assay plate. The compound-treated cells are incubated overnight at 37° C. in a humidified 5% CO2 atmosphere. The next morning 25 μL of Steady-Glo (Promega) are added to each well of the plate, the mixture is incubated for 15 min. with shaking, and luminescence is measured on an Envision (Perkin Elmer) plate reader. Background counts from cells treated with DMSO alone are subtracted from all raw counts, and the corrected values are converted to a percentage of the control response attained with 8 μM GW-4064.
On the technique in general: A reporter such as luciferase makes a cellular process visible.
A word on the EC50: it is the concentration giving half of the maximal effect. In turn, `CC(C)(Oc1cccc(N(CC23CCC(c4noc(C(C)(C)C)n4)(CC2)CC3)C(=O)C23CC(F)(C2)C3)c1)C(=O)O` [Example 113, 2-(3-(N-((4-(5-(tert-butyl)-1,2,4-oxadiazol-3-yl)bicyclo[2.2.2]octan-1-yl)methyl)-3-fluorobicyclo[1.1.1]pentane-1-carboxamido)phenoxy)-2-methylpropanoic acid] displayed an EC50 of 2000 nM.
`Cn1nc(C2CC2)cc1C12CCC(CN(C(=O)C34CC(F)(C3)C4)c3cccc(S(C)(=O)=O)c3)(CC1)CC2` [Example 78, N-((4-(3-cyclopropyl-1-methyl-1H-pyrazol-5-yl)bicyclo[2.2.2]octan-1-yl)methyl)-3-fluoro-N-(3-(methylsulfonyl)phenyl)bicyclo[1.1.1]pentane-1-carboxamide] showed a concentration for a half-maximal effect (EC50) of 4000 nM.
The compound `COc1cc(N(CC23CCC(c4noc(C(C)(F)F)n4)(CC2)CC3)C(=O)C23CC(F)(C2)C3)ccn1` [Example 17, N-((4-(5-(1,1-difluoroethyl)-1,2,4-oxadiazol-3-yl)bicyclo[2.2.2]octan-1-yl)methyl)-3-fluoro-N-(2-methoxypyridin-4-yl)bicyclo[1.1.1]pentane-1-carboxamide] displayed an EC50 of 149 nM.
As to `CC(F)(F)c1nc(C23CCC(CN(C(=O)C45CC(F)(C4)C5)c4cccc(S(=O)(=O)NC5CC5)c4)(CC2)CC3)no1` [Example 18, N-(3-(N-cyclopropylsulfamoyl)phenyl)-N-((4-(5-(1,1-difluoroethyl)-1,2,4-oxadiazol-3-yl)bicyclo[2.2.2]octan-1-yl)methyl)-3-fluorobicyclo[1.1.1]pentane-1-carboxamide], the midpoint of the response, the EC50, lay at 1560 nM.
In turn, `CC(F)(F)c1nc(C23CCC(CN(C(=O)C4CCC(F)(F)CC4)c4cccc(P(C)(C)=O)c4)(CC2)CC3)no1` [Example 24, N-((4-(5-(1,1-difluoroethyl)-1,2,4-oxadiazol-3-yl)bicyclo[2.2.2]octan-1-yl)methyl)-N-(3-(dimethylphosphoryl)phenyl)-4,4-difluorocyclohexane-1-carboxamide] registered an EC50 of 4000 nM.
Turning to `CC(C)(F)c1nc(C23CCC(CN(C(=O)N[C@H]4CC[C@](C)(O)CC4)c4cccc(C#N)c4)(CC2)CC3)no1` [Example 95, 1-(3-cyanophenyl)-1-((4-(5-(2-fluoropropan-2-yl)-1,2,4-oxadiazol-3-yl)bicyclo[2.2.2]octan-1-yl)methyl)-3-((1R,4R)-4-hydroxy-4-methylcyclohexyl)urea], the EC50 came out at 181 nM.
In the case of `CC(F)(F)c1nc(C23CCC(CN(C(=O)N[C@H]4CC[C@](C)(O)CC4)c4cccc(C#N)c4)(CC2)CC3)no1` [Example 99, 1-(3-cyanophenyl)-1-((4-(5-(1,1-difluoroethyl)-1,2,4-oxadiazol-3-yl)bicyclo[2.2.2]octan-1-yl)methyl)-3-((1R,4R)-4-hydroxy-4-methylcyclohexyl)urea], the EC50 was 391 nM.
Take `CC(C)(C)c1noc(C23CCC(CN(C(=O)C45CC(F)(C4)C5)c4cccc(C#N)c4)(CC2)CC3)n1` [Example 38, N-((4-(3-(tert-butyl)-1,2,4-oxadiazol-5-yl)bicyclo[2.2.2]octan-1-yl)methyl)-N-(3-cyanophenyl)-3-fluorobicyclo[1.1.1]pentane-1-carboxamide]: the midpoint of the response, the EC50, lay at 142 nM.
Turning to `Cc1noc(C23CCC(CN(C(=O)C4CCCCC4)c4cccc(C(=O)Nc5nccs5)c4)(CC2)CC3)n1` [Example 82, 3-(N-((4-(3-methyl-1,2,4-oxadiazol-5-yl)bicyclo[2.2.2]octan-1-yl)methyl)cyclohexanecarboxamido)-N-(thiazol-2-yl)benzamide], the EC50 was found to be 3010 nM.
`CC(C)(C)c1noc(C23CCC(CN(c4cccc(C#N)c4)C(=O)[C@H]4C[C@](O)(C(F)(F)F)C4)(CC2)CC3)n1` [Example 39, (1S,3S)-N-((4-(3-(tert-butyl)-1,2,4-oxadiazol-5-yl)bicyclo[2.2.2]octan-1-yl)methyl)-N-(3-cyanophenyl)-3-hydroxy-3-(trifluoromethyl)cyclobutane-1-carboxamide] yielded an EC50 of 568 nM.
Take `CS(=O)(=O)Nc1cccc(N(CC23CCC(c4nc(C5CC5)no4)(CC2)CC3)C(=O)C23CC(F)(C2)C3)c1` [Example 66, N-((4-(3-cyclopropyl-1,2,4-oxadiazol-5-yl)bicyclo[2.2.2]octan-1-yl)methyl)-3-fluoro-N-(3-(methylsulfonamido)phenyl)bicyclo[1.1.1]pentane-1-carboxamide]: it took 4000 nM to reach a half-maximal effect (EC50).
With `CCOc1ccc(Nc2cccc(N(CC34CCC(c5nc(C(C)(C)C)no5)(CC3)CC4)C(=O)C34CC(F)(C3)C4)c2)cc1` [Example 83, N-((4-(3-(tert-butyl)-1,2,4-oxadiazol-5-yl)bicyclo[2.2.2]octan-1-yl)methyl)-N-(3-((4-ethoxyphenyl)amino)phenyl)-3-fluorobicyclo[1.1.1]pentane-1-carboxamide], a half-maximal effect (EC50) was put at 1130 nM.
The figure for `CC(F)(F)c1nc(C23CCC(CN(c4cc(F)cc(C#N)c4)C(=O)[C@H]4C[C@](O)(C(F)(F)F)C4)(CC2)CC3)no1` [Example 136, (1S,3S)-N-(3-cyano-5-fluorophenyl)-N-((4-(5-(1,1-difluoroethyl)-1,2,4-oxadiazol-3-yl)bicyclo[2.2.2]octan-1-yl)methyl)-3-hydroxy-3-(trifluoromethyl)cyclobutane-1] is 256 nM; for `CC(C)(C)c1nc(C23CCC(CN(C(=O)C45CC(F)(C4)C5)c4cccc(Oc5ncc(OC(F)F)cn5)c4)(CC2)CC3)no1` [Example 118, N-((4-(5-(tert-butyl)-1,2,4-oxadiazol-3-yl)bicyclo[2.2.2]octan-1-yl)methyl)-N-(3-((5-(difluoromethoxy)pyrimidin-2-yl)oxy)phenyl)-3-fluorobicyclo[1.1.1]pentane-1-carboxamide] it is 361 nM.
In turn, `CC(C)(C)c1nc(C23CCC(CN(C(=O)C45CC(F)(C4)C5)c4cccc(Oc5ccc(OC(F)F)cn5)c4)(CC2)CC3)no1` [Example 119, N-((4-(5-(tert-butyl)-1,2,4-oxadiazol-3-yl)bicyclo[2.2.2]octan-1-yl)methyl)-N-(3-((5-(difluoromethoxy)pyridin-2-yl)oxy)phenyl)-3-fluorobicyclo[1.1.1]pentane-1-carboxamide] came in with an EC50 of 536 nM.
In the case of `CCNC(=O)c1cc(N(CC23CCC(c4nc(C(C)(C)C)no4)(CC2)CC3)C(=O)C23CC(F)(C2)C3)ccc1F` [Example 122, N-((4-(3-(tert-butyl)-1,2,4-oxadiazol-5-yl)bicyclo[2.2.2]octan-1-yl)methyl)-N-(3-(ethylcarbamoyl)-4-fluorophenyl)-3-fluorobicyclo[1.1.1]pentane-1-carboxamide], the EC50 worked out at 123 nM.
For `CCOc1cccc(N(CC23CCC(c4nc(C5CC5)no4)(CC2)CC3)C(=O)C2CCS(=O)(=O)CC2)c1` [Example 56, N-((4-(3-cyclopropyl-1,2,4-oxadiazol-5-yl)bicyclo[2.2.2]octan-1-yl)methyl)-N-(3-ethoxyphenyl)tetrahydro-2H-thiopyran-4-carboxamide 1,1-dioxide] the value was 4000 nM; for `O=C(N(CC12CCC(c3noc(C4(F)CC4)n3)(CC1)CC2)c1cccc(Br)c1)C12CC(F)(C1)C2` [Example 34, N-(3-bromophenyl)-3-fluoro-N-((4-(5-(1-fluorocyclopropyl)-1,2,4-oxadiazol-3-yl)bicyclo[2.2.2]octan-1-yl)methyl)bicyclo[1.1.1]pentane-1-carboxamide], 20 nM.
The compound `CC(C)(C)c1noc(C23CCC(CN(C(=O)C4CC(F)(F)C4)c4cccc(P(C)(C)=O)c4)(CC2)CC3)n1` [Example 44, N-((4-(3-(tert-butyl)-1,2,4-oxadiazol-5-yl)bicyclo[2.2.2]octan-1-yl)methyl)-N-(3-(dimethylphosphoryl)phenyl)-3,3-difluorocyclobutane-1-carboxamide] returned an EC50 of 4000 nM.
